Data on 2 molecules can be found in patent publication US10787456B2 (priority 2018, dated 2020).

One data set relates to bEnd.3 cells. Briefly: Blood-brain barrier membrane permeability in in-vitro monolayer of bEnd.3 cells. The class given is in vitro ADME. The settings on record: in 30 minutes. An excerpt:
FIG. 4 provides permeability data for the blood-brain barrier (BBB) of various compounds, including gliotoxin and Formula 1b. Membrane permeability increases linearly as a function of time.

The subject of the next data set is CNS Receptor. Briefly: CNS Receptor binding (profile). The procedure: (§1) In an illustrative embodiment of the present invention, gliotoxin and Formula 1b, were evaluated for activity of various receptors. Turning to Table 1, inhibitory data is provided for various receptors found in the CNS, including H1 and opioid receptors μ (MOR), […], and κ (KOR). Inhibition data is provided as inhibitor constant, Ki, is the concentration required to produce half-maximum inhibition. This quantitative measure indicates how much of a particular drug or other substance (inhibitor) is needed to inhibit a given biological process (or component of a process, i.e. an enzyme, cell, cell receptor or microorganism) by half. The values are typically expressed as molar (micro- and nano-) concentrations.

A further data set relates to MDA-MB-231. Briefly: Cytotoxicity in cancer cell line MDA-MB-231. It is filed as cell-based. An excerpt:
(§2) Further cytotoxicity studies show potential for efficacy as […]. Table 2, below, provides IC50 data relating to both a cancer cell line and E. coli minimum inhibitory concentration (MIC).

Another data set concerns E. Coli. Briefly: E. coli minimum inhibitory concentration. The class given is cell-based.
From the text: as §2

In a further data set the target is σ (DOR) opioid receptor (Homo sapiens, UniProt P41143). Briefly: CNS receptor inhibition, Delta opioid receptor. The class given is binding. How it is done:
as §1

For another data set, the target named is μ (MOR) opioid receptor (Homo sapiens, UniProt P35372). Briefly: CNS receptor inhibition, Mu opioid receptor. The class given is binding. How it is done:
as §1

For the next data set, the system named is HUVEC cells. Briefly: Angiogenesis study, tube formation in HUVEC. The class given is cell-based. The settings on record: 100 nM of drug treatment. The procedure: Angiogenesis studies were performed using HUVEC cells (see FIGS. 6A-6C). Tube formation in HUVEC in presence of 100 nM of drug treatment.
The target of another data set is κ (KOR) opioid receptor (Homo sapiens, UniProt P41145). Briefly: CNS receptor inhibition, Kappa opioid receptor. The class given is binding. The procedure:
as §1

In another data set the target is H1 receptor (Homo sapiens, UniProt P35367). Briefly: CNS receptor inhibition, H1 receptor. It is filed as binding. How it is done: as §1

Molecules are shown by their SMILES. Values after ≈ are worked out from the molar mass of the structure shown. Like-named read-outs stand apart in the source and are kept apart here. A value given as a limit tells only on which side of the number the result lay.

Sequence of H1 receptor (P35367 whole entry): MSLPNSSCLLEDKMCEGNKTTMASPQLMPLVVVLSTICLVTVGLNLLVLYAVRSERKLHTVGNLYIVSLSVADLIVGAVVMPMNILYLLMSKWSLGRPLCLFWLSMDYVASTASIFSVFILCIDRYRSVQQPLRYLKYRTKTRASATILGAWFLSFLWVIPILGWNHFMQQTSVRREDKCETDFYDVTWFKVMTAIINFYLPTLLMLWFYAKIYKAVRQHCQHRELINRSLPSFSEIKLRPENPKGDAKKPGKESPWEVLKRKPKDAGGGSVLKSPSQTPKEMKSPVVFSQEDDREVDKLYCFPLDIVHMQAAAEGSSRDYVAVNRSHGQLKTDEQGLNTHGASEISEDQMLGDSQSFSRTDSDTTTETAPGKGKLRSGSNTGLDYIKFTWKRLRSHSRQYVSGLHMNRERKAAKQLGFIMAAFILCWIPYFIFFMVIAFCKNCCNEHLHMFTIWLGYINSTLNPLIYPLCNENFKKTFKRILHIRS
Sequence of κ (KOR) opioid receptor (P41145 whole entry): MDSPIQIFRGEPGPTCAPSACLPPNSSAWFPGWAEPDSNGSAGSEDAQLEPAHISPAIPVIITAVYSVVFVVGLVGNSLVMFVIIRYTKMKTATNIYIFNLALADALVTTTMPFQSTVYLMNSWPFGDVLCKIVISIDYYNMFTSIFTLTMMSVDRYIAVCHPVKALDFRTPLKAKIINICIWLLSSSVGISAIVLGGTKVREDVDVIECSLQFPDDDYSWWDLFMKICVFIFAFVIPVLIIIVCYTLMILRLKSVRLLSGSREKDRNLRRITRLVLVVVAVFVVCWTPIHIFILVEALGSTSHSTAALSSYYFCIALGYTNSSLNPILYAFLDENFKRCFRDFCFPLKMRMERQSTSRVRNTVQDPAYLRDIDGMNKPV
Sequence of μ (MOR) opioid receptor (P35372 whole entry): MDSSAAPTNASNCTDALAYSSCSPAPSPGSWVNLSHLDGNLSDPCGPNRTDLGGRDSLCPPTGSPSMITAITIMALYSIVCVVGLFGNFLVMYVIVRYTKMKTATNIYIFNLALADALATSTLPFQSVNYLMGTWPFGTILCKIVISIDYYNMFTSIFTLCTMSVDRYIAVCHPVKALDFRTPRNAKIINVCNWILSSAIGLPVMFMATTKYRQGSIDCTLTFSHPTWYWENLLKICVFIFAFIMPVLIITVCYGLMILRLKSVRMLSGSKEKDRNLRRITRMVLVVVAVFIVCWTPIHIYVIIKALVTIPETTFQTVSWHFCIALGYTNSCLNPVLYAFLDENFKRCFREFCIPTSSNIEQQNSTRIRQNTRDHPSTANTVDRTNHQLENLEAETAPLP
Sequence of σ (DOR) opioid receptor (P41143 whole entry): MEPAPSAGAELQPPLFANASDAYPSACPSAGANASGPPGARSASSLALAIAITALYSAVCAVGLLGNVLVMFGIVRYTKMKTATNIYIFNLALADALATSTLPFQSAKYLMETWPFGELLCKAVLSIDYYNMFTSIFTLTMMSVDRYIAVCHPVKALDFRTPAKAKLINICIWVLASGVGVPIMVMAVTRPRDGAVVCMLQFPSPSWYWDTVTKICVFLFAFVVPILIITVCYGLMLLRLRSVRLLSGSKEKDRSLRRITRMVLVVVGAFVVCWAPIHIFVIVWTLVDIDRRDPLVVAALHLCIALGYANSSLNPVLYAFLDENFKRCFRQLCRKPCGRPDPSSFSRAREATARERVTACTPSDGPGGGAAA

`CCc1cccc2c1N1C(=O)CC(C)C(=O)C1C2` (stereo not drawn) [Formula 1b, 4-ethyl-8-methyl-7,8,9a,10-tetrahydropyrido[1,2-α]indole-6,9-dione]: in the data set with bEnd.3 cells, the “ability to cross the BBB” value worked out at 80%. For the same molecule, in the data set on CNS Receptor, the “CNS Receptor binding” value was “Opioid Antagonist”. Moreover, the half-inhibitory concentration (IC50) – broadly, the midpoint of a concentration-inhibition curve – in the data set with MDA-MB-231 was over 100 µM. Further, in the data set with E. Coli, the “E. Coli MIC” value is recorded as “Not Active”. The “Inhibition (%)” value is on record as 97.4% on σ (DOR) opioid receptor, 97.8% at μ (MOR) opioid receptor and 99.3% on κ (KOR) opioid receptor. Moreover, in the data set with HUVEC cells, the “Inhibition of tube formation” value is listed as “no inhibition was observed”.
As for `CN1C(=O)[C@]23CC4=CC=C[C@H](O)[C@H]4N2C(=O)[C@@]1(CO)SS3` [Gliotoxin, reference compound], in the data set with CNS Receptor, the “CNS Receptor binding” value is given as “H1 Receptor Antagonist”. Also, the IC50 in the data set on MDA-MB-231 (Homo sapiens) was 1.4 µM. Further, the “CNS activity, inhibition of the H1 receptor (FIG. 7)” value on H1 receptor was “partial inhibition”. In addition, the “Inhibition (%)” value at H1 receptor (H1) amounted to 61%. In the data set with E. Coli (Escherichia coli), the lowest concentration to inhibit growth (MIC) was 32 µg/mL (≈ 98 µM). In addition, the “Inhibition of tube formation” value in the data set on HUVEC cells is “Inhibition of tube formation was observed”.
